Test results reported in US6046329A, “Uracil derivatives” (Byk Gulden Lomberg Chemische Fabrik GmbH, priority 1994, dated 2000).

Tests used:
α1B receptor = target: T1, α1B receptor (Rattus norvegicus, UniProt P15823); assay: Radioligand binding with [3H]prazosine (in the presence of WB 4101), affinity for α1B receptor subtype; conditions: membranes from rat brain cortex, subtype-selective substances tested again in the presence of 3 nmol/l WB 4101, Cheng and Prusoff; for Ki: read-out: Receptor affinity α1B, expressed in pKI values (converted)
T1 construct: membranes from rat brain cortex; from tissue; host or cells: rat brain cortex membranes
T1 sequence (P15823 1-515): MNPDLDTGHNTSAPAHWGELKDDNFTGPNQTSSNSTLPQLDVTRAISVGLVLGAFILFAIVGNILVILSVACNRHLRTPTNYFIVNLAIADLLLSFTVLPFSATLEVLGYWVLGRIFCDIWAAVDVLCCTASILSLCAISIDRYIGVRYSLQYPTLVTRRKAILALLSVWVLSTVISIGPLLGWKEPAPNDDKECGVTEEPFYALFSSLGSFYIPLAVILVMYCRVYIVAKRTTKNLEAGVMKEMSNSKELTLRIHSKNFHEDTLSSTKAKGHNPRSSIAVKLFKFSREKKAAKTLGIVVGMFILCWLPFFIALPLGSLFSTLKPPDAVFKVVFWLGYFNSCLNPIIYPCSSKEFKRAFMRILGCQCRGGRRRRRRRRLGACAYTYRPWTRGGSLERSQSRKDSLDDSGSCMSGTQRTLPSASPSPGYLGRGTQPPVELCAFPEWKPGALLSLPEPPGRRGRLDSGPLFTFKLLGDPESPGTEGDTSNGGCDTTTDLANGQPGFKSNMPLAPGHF
Description: (§1) The affinity of substances for α1 receptor subtypes was determined in radioligand binding studies using [^3 H]prazosine as a radioligand. 50-200 μg of membranes from rat brain cortex were incubated in a total volume of 0.5-1 ml with [^3 H]prazosine (0.2 to 0.5 nmol/l) in the presence of rising concentrations of substances. The incubation buffer used was 50 mmol/l tris/HCl pH 7.5, 1 mmol/l EDTA, 0.1 mmol/l PMSF. The nonspecific binding was determined in separate batches in the presence of 10 μmol/l of phentolamine or 1 μmol/l of prazosine. After 1 h at 37° C., the bound radioactivity was separated from the free radioactivity by rapid filtration of the incubation batch at 0° C. through glass fiber filters. The filters were washed twice with 3.5 ml each of cold filtration buffer (50 mmol/l tris/HCl pH 7.4, 10 mmol/l MgCl2, 10% polyethylene glycol 6000). The filter-bound radioactivity was determined by liquid scintillation counting. Substances with subtype selectivity for the α1 receptor subtypes were tested again in the presence of 3 nmol/l of WB 4101. WB4101 blocks the binding of [^3 H]prazosine to the α1A receptor subtype and the remaining binding corresponds to that to the α1B receptor.
(§2) For each substance, dose-response curves were plotted by means of nonlinear regression using the Inplot program (GraphPad, Sorento, Calif., USA). IC50 values were corrected by the concentration of the radioligand employed according to the formula of Cheng and Prusoff. The resulting KI values (see following table) represent the affinity of the respective substance for the tested receptor. The compounds according to the invention investigated according to the model illustrated in greater detail above have been provided in the following table with numbers which correspond to the numbers of these compounds in the examples.

5-HT1A receptor = target: T2, 5-HT1A receptor (Sus scrofa, UniProt A0A4X1UTF5); assay: Radioligand binding with [3H]8-OH-DPAT, affinity for 5-HT1A receptor; conditions: membranes from pig brain cortex, IC50 corrected according to Cheng and Prusoff; for Ki: read-out: Receptor affinity 5-HT1A, expressed in pKI values (converted)
T2 construct: membranes from pig brain cortex; from tissue; host or cells: pig brain cortex membranes
T2 sequence (A0A4X1UTF5 1-422): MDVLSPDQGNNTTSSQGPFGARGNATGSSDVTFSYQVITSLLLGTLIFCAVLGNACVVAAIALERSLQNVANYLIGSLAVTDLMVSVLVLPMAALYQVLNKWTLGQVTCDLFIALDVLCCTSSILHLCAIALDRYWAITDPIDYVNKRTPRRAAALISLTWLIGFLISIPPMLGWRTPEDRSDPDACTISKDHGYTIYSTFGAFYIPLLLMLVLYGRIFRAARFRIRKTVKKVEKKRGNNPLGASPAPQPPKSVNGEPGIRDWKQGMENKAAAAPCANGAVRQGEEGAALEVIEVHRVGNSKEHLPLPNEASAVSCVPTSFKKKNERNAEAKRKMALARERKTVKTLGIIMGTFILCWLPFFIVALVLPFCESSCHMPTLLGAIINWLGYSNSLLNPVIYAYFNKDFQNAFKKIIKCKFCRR
Description: The affinity of substances for the 5-HT1A receptor was determined in radioligand binding studies using [^3 H]8-OH-DPAT as a radioligand. 50-150 μg of membranes from pig brain cortex were incubated in a total volume of 0.25-0.5 ml with [^3 H]8-OH-DPAT (0.2 to 0.4 nmol/l) in the presence of rising concentrations of substances. The incubation buffer used was 50 mmol/l tris/HCl pH 8.2, 1 mmol/l MnCl2. The nonspecific binding was determined in separate batches in the presence of 10 μmol/l of 5-HT. After 30 min at 23° C., the bound radioactivity was separated from the free radioactivity by rapid filtration of the incubation batch at 0° C. through glass fiber filters. The filters were washed twice with 3.5 ml each of cold filtration buffer (50 mmol/l tris/HCl pH 7.4, 10 mmol/l MgCl2, 10% polyethylene glycol 6000). The filter-bound radioactivity was determined by liquid scintillation counting.
as §2

α1A receptor = target: T3, α1A receptor (Rattus norvegicus, UniProt P43140); assay: Radioligand binding with [3H]prazosine, affinity for α1A receptor subtype; conditions: membranes from rat brain cortex, IC50 corrected according to Cheng and Prusoff; for Ki: read-out: Receptor affinity α1A, expressed in pKI values (converted)
T3 construct: membranes from rat brain cortex; from tissue; host or cells: rat brain cortex membranes
T3 sequence (P43140 1-466): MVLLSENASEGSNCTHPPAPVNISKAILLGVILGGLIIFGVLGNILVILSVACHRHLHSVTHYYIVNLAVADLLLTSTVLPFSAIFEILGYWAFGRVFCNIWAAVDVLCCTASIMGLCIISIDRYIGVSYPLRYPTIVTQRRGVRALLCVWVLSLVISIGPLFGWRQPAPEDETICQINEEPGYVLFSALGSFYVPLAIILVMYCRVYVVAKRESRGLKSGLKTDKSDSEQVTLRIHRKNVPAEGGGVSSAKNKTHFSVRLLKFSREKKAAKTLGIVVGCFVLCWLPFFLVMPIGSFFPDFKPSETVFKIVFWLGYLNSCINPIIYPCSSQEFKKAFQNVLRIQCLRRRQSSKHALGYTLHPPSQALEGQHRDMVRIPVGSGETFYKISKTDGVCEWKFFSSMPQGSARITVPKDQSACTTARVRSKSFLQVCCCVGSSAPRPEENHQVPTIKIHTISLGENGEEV
Description: as §1, §2

SMILES	Ki (α1B receptor)	Ki (5-HT1A receptor)	Ki (α1A receptor)	Receptor affinity α1B, expressed in pKI values (α1B receptor)	Receptor affinity 5-HT1A, expressed in pKI values (5-HT1A receptor)	Receptor affinity α1A, expressed in pKI values (α1A receptor)
COc1cc(Br)c(Br)cc1N1CCN(CCCNc2c(C)c(=O)n(C)c(=O)n2C)CC1 [Compound 1, 1,3,5-Trimethyl-6-[[3-[4-(3,4-dibromo-6-methoxy-phenyl)-1-piperazinyl]propyl]amino]-2,4(1H,3H)-pyrimidinedione]	5.01 nM	1.26 nM	5.01 nM			
COc1ccccc1N1CCN(CCCNc2c(Cc3c(NCCCN4CCN(c5ccccc5OC)CC4)n(C)c(=O)n(C)c3=O)c(=O)n(C)c(=O)n2C)CC1 [Compound 2]	0.398 nM	12.6 nM	0.398 nM			
CCOc1ccccc1N1CCN(CCCNc2c(CCC#N)c(=O)n(C)c(=O)n2C)CC1 [Compound 3, 5-Cyanoethyl-1,3-dimethyl-6-[[3-[4-(2-ethoxyphenyl)-1-piperazinyl]propyl]amino]-2,4(1H,3H)-pyrimidinedione]	63.1 nM	0.398 nM	0.501 nM			
CCOc1cc(F)ccc1N1CCN(CCCNc2c(Cc3c(NCCCN4CCN(c5ccc(F)cc5OCC)CC4)n(C)c(=O)n(C)c3=O)c(=O)n(C)c(=O)n2C)CC1 [Compound 4, Bis[1,3-dimethyl-6-[[3-[4-(2-ethoxy-4-fluorophenyl)-1-piperazinyl]propyl]amino]-2,4(1H,3H)-pyrimidinedione-5,5'-yl]methane]	1 nM	39.8 nM	1 nM			
COc1ccccc1N1CCN(CCCNC(=O)c2cc(=O)n(C)c(=O)n2C)CC1 [Compound 5, 1,3-Dimethyl-2,4(1H,3H)-pyrimidinedione-6-carboxylic acid [[3-[4-(2-methoxyphenyl)-1-piperazinyl]propyl]amide]]	251 nM	2.51 nM	5.01 nM			
Cc1c(NCCCN2CCN(c3ccccc3OC(F)(F)C(F)F)CC2)n(C)c(=O)n(C)c1=O [Compound 6, 1,3,5-Trimethyl-6-[[3-[4-(2-tetrafluoro-ethoxyphenyl)-1-piperazinyl]-propyl]amino]-2,4(1H,3H)-pyrimidinedione]				7.5	9.7	9.4
C=CCc1c(NCCCN2CCN(c3ccc(F)cc3OCC)CC2)n(C)c(=O)n(C)c1=O [Compound 7, 5-Allyl-1,3-dimethyl-6-[[3-[4-(2-ethoxy-4-fluorophenyl)-1-piperazinyl]propyl]amino]-2,4(1H,3H)-pyrimidinedione]	39.8 nM	0.794 nM	0.631 nM			
Cn1c(NCCCN2CCN(c3ccccc3OC(F)(F)C(F)F)CC2)c(CCC#N)c(=O)n(C)c1=O [Compound 8]				7.5	10.0	9.2
Cc1c(NCCCN2CCN(c3cccc4c3OCC(CO)O4)CC2)n(C)c(=O)n(C)c1=O (stereo not drawn) [Compound 9, 1,3,5-Trimethyl-6-[[3-[4-((2,3-dihydro-2-hydroxymethyl)-1,4-benzodioxin-5-yl)-1-piperazinyl]propyl]amino]-2,4(1H,3H)-pyrimidinedione]	1580 nM	0.2 nM	2 nM			
Cn1c(NCCCN2CCN(c3cccc4c3OCC(CO)O4)CC2)c(Cc2c(NCCCN3CCN(c4cccc5c4OCC(CO)O5)CC3)n(C)c(=O)n(C)c2=O)c(=O)n(C)c1=O (stereo not drawn) [Compound 10, Bis[1,3-dimethyl-6-[[3-[4-((2,3-dihydro-2-hydroxymethyl)-1,4-benzodioxin-5-yl)-1-piperazinyl]propyl]amino]-2,4(1H,3H)-pyrimidinedione-5,5'-yl]methane]	7.94 nM	0.501 nM	7.94 nM			
C=CCc1c(NCCCN2CCN(c3ccccc3OC(F)(F)C(F)F)CC2)n(C)c(=O)n(C)c1=O [Compound 11, 5-Allyl-1,3-dimethyl-6-[[3-[4-(2-tetrafluoro-ethoxyphenyl)-1-piperazinyl]propyl]amino]-2,4(1H,3H)-pyrimidinedione]				7.9	9.3	9.6
CCOC(=O)c1c(NCCCN2CCN(c3ccccc3OC)CC2)n(C)c(=O)n(C)c1=O [Compound 12, 1,3-Dimethyl-5-ethoxycarbonyl-6-[[3-[4-(2-methoxyhenyl)-1-piperazinyl]propyl]amino]-2,4(1H,3H)-pyrimidinedione]	25.1 nM	6.31 nM	25.1 nM			
Cc1c(NCCCN2CCN(c3ccccc3O)CC2)n(C)c(=O)n(C)c1=O [Compound 13, 1,3,5-Trimethyl-6-[[3-[4-(2-hydroxyphenyl)-1-piperazinyl]propyl]amino]-2,4(1H,3H)-pyrimidinedione]	20 nM	0.251 nM	20 nM			
COc1cc([N+](=O)[O-])ccc1N1CCN(CCCNc2c(C)c(=O)n(C)c(=O)n2C)CC1 [Compound 14, 1,3,5-Trimethyl-6-[[3-[4-(2-methoxy-4-nitrophenyl)-1-piperazinyl]propyl]amino]-2,4(1H,3H)-pyrimidinedione]	251 nM	200 nM	251 nM			
CON=Cc1c(NCCCN2CCN(c3ccccc3OC)CC2)n(C)c(=O)n(C)c1=O [Compound 15, 1,3-Dimethyl-5-methoxyiminomethyl-6-[[3-[4-(2-methoxyohenyl)-1-piperazinyl]propyl]amino]-2,4(1H,3H)-pyrimidinedione]	126 nM	1.58 nM	5.01 nM			
COc1ccccc1N1CCN(CCCNc2c(C=NO)c(=O)n(C)c(=O)n2C)CC1 [Compound 16, 1,3-Dimethyl-5-hydroxyiminomethyl-6-[[3-[4-(2-methoxphenyl)-1-piperazinyl]propyl]amino]-2,4(1H,3H)-pyrimidinedione]	50.1 nM	1 nM	2 nM			
